These results are taken from ChEMBL document CHEMBL1142978, “Probing the anticancer activity of nucleoside analogues: a QSAR model approach using an internally consistent training set” (J Med Chem, 2007).

A short description of this experiment: Cytotoxicity against mouse L1210/0 cells after 48 hrs. In kind it is cell-based.

By IC50 is commonly meant the concentration that inhibits the measured activity by half. A higher IC50 goes with weaker potency in that assay.

On to `Nc1ncnc2c1ncn2[C@@H]1O[C@H](/C=N/O)[C@@H](O)[C@H]1O` (stereo in doubt; 75), for which inhibition (l1210/0) was half-maximal at 6.47 µM (IC50).

`Nc1ncnc2c1nnn2[C@@H]1C[C@H](CO)[C@@H](CO)[C@H]1CO` yielded an IC50 (Mus musculus, L1210/0, 48 h) above 200 µM.

Take `CC1(C)[C@@H](Cn2ccc(=O)[nH]c2=O)CC[C@@]1(C)CO`: the IC50 (Mus musculus, L1210/0, 48 h) was above 200 µM.

Regarding `O=c1ccn(COCCO)c(=O)[nH]1`, the IC50 (Mus musculus, L1210/0, 48 h) is above 200 µM.

Under “Mus musculus, L1210/0, 48 h”, `COC1=C(OC)/C(=C/C(n2cnc3c(Cl)ncnc32)P(=O)(OC)OC)OC1=O` (stereo not drawn) displayed an IC50 of 37.7 µM.

`Nc1nc2c(ncn2[C@@H]2O[C@H](CO)[C@H](F)[C@@H]2O)c(=O)[nH]1` gave an IC50 (Mus musculus, L1210/0, 48 h) of 17.5 µM.

`O=c1ccn(C[C@@H]2CCC[C@H]2CO)c(=O)[nH]1` returned an IC50 (Mus musculus, L1210/0, 48 h) above 200 µM.

In turn, `O=c1[nH]c(=O)n([C@H]2C[C@H](O)[C@@H](CO)O2)cc1C#Cc1ccccc1` displayed an IC50 (Mus musculus, L1210/0, 48 h) above 200 µM.

On to `Nc1ncnc2c1ncn2C1C[C@@H](CO)[C@@H](CO)C1` (stereo partly drawn), for which the IC50 (Mus musculus, L1210/0, 48 h) is above 200 µM.

In the case of `CC1(C)[C@@H](CO)CC[C@@]1(C)Cn1cnc2c(=O)[nH]cnc21`, the IC50 (Mus musculus, L1210/0, 48 h) is above 200 µM.

For the setting “Mus musculus, L1210/0, 48 h”, `Nc1nc(Cl)c2ncn([C@H]3CCCC[C@H]3CO)c2n1` came in with an IC50 above 200 µM.

`O=C1O/C(=C\Cn2cc(F)c(=O)[nH]c2=O)C(OCc2ccccc2)=C1OCc1ccccc1` displayed an IC50 (Mus musculus, L1210/0, 48 h) of 5.1 µM.

For the setting “Mus musculus, L1210/0, 48 h”, `Nc1nc2c(ncn2COCCO)c(=O)[nH]1` [ACYCLOVIR] returned an IC50 of 57.7 µM.

In the case of `CCCC/C=C\c1cn([C@H]2C[C@H](O)[C@@H](CO)O2)c(=O)[nH]c1=O`, the IC50 (Mus musculus, L1210/0, 48 h) is above 200 µM.

For the molecule `C[C@@]1(CO)O[C@H](c2cc(F)c(N)cc2F)C[C@@H]1O`, under “Mus musculus, L1210/0, 48 h”, the IC50 was above 200 µM.

Molecule `CC1(C)C(CO)CC1Cn1cnc2c(=O)[nH]c(N)nc21` (stereo not drawn) came in with an IC50 (Mus musculus, L1210/0, 48 h) above 200 µM.

Under “Mus musculus, L1210/0, 48 h”, `CC1(C)[C@@H](CO)CC[C@@]1(C)Cn1nnc2c(N)ncnc21` gave an IC50 above 200 µM.

`Nc1ncnc2c1ncn2[C@@H]1O[C@H](C=O)C[C@@H]1O` displayed an IC50 (Mus musculus, L1210/0, 48 h) above 200 µM.
